In ChEMBL document CHEMBL1154624, “Novel class of LIM-kinase 2 inhibitors for the treatment of ocular hypertension and associated glaucoma” (J Med Chem, 2009):

Legend:
[1] = target: Rho-associated protein kinase 1 (Homo sapiens, UniProt Q13464); experiment: Inhibition of human ROCK1 expressed in baculovirus system
LIM domain kinase 1 = LIM domain kinase 1 (Homo sapiens, UniProt P53667); experiment: Inhibition of LIMK1
[2] = target: Rho-associated protein kinase 2 (Homo sapiens, UniProt O75116); experiment: Inhibition of human ROCK2
Rho-associated protein kinase 2, sequence (O75116 whole entry, the tested form may be a part): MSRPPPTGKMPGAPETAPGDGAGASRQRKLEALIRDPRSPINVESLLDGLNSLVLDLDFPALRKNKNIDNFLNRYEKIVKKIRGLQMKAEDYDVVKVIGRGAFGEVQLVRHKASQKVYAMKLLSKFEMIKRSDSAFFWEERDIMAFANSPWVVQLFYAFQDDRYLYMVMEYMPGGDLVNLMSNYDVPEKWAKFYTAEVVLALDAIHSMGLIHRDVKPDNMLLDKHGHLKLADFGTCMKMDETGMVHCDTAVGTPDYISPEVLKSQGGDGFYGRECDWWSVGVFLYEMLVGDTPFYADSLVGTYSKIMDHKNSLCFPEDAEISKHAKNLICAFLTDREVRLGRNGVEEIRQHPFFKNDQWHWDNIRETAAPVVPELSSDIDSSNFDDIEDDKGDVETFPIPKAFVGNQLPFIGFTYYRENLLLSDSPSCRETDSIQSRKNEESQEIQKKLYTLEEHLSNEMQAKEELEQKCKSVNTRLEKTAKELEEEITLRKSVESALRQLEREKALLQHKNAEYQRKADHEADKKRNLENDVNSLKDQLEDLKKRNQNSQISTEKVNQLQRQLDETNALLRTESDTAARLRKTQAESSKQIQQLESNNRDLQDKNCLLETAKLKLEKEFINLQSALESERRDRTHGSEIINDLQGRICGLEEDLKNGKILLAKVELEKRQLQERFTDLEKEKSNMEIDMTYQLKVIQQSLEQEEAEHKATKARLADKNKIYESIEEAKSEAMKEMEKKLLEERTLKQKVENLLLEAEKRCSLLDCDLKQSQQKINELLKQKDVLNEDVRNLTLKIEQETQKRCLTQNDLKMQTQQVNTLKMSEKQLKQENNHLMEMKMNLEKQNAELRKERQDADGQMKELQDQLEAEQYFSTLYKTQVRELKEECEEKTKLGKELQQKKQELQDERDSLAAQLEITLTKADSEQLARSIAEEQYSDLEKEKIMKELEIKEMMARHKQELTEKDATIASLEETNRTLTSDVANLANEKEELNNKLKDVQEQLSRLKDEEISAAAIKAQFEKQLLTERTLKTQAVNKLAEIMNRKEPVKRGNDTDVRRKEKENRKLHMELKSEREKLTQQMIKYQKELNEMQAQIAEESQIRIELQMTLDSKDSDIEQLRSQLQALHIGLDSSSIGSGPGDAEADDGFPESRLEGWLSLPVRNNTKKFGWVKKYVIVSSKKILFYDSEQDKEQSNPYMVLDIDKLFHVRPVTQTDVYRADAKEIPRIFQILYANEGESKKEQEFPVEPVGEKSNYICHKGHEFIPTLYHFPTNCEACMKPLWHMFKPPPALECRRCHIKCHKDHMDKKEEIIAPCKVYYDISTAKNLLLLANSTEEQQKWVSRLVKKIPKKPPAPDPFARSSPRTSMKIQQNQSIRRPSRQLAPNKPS

LIM domain kinase 2 = LIM domain kinase 2 (Homo sapiens, UniProt P53671); experiment: Inhibition of human recombinant LIMK2 expressed in baculovirus-Sf9 system by scintillation counting; format: cell-based
LIM domain kinase 2, sequence (P53671 whole entry, the tested form may be a part): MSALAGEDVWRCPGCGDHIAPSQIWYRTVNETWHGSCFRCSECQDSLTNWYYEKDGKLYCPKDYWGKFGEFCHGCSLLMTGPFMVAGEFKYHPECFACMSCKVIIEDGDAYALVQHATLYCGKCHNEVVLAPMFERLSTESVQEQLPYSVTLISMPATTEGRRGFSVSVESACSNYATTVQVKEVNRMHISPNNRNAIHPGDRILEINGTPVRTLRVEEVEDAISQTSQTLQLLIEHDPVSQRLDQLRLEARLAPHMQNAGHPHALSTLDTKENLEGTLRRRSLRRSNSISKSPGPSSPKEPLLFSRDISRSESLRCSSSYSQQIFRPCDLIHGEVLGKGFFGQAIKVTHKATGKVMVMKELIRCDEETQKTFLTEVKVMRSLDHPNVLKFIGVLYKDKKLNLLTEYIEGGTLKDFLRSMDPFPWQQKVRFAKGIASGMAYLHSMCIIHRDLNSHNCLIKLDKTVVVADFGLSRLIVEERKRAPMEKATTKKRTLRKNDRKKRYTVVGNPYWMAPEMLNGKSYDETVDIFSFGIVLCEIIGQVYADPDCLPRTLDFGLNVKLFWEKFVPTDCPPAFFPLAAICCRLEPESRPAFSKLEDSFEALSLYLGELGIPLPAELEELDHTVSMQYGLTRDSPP

PTM = conditions: Sus scrofa, at 10 nM
Description: Inhibition of LIMK2 in pig PTM cells assessed as inhibition of cofilin-phosphorylation at 10 nM by Western blot

Homo sapiens [3] = species: Homo sapiens; experiment: Selectivity ratio of IC50 for human LIMK2 to IC50 for human ROCK1
Mus musculus [4] = experiment: Inhibition of dexamethasone-induced ocular hypertension in C57BL/6J Tyr c-Brd x 129S5/SvEvBrD hybrid mouse assessed as reduction of intraocular pressure at 5 ug after 1 hr administered as xanthan gum formulation; format: functional, Eye
[5] = Increase in outflow facility in pig eye at 100 nM by eye-perfusion assay; format: functional, Sus scrofa
Homo sapiens [6] = species: Homo sapiens; experiment: Selectivity ratio of IC50 for human LIMK2 to IC50 for human ROCK2
[7] = Increase in outflow facility in pig eye at 10 nM by eye-perfusion assay; format: functional, Sus scrofa
Mus musculus [8] = experiment: Inhibition of dexamethasone-induced ocular hypertension in C57BL/6J Tyr c-Brd x 129S5/SvEvBrD hybrid mouse assessed as reduction of intraocular pressure after 2 hrs administered as cosolvent/HPMC based formulation; format: functional, organism-based; conditions: Eye
Mus musculus [9] = experiment: Inhibition of dexamethasone-induced ocular hypertension in C57BL/6J Tyr c-Brd x 129S5/SvEvBrD hybrid mouse assessed as reduction of intraocular pressure at 3 ug after 2 hrs administered as cosolvent/HPMC based formulation; format: functional, Eye

Rho-associated protein kinase 1, sequence (Q13464 whole entry, the tested form may be a part): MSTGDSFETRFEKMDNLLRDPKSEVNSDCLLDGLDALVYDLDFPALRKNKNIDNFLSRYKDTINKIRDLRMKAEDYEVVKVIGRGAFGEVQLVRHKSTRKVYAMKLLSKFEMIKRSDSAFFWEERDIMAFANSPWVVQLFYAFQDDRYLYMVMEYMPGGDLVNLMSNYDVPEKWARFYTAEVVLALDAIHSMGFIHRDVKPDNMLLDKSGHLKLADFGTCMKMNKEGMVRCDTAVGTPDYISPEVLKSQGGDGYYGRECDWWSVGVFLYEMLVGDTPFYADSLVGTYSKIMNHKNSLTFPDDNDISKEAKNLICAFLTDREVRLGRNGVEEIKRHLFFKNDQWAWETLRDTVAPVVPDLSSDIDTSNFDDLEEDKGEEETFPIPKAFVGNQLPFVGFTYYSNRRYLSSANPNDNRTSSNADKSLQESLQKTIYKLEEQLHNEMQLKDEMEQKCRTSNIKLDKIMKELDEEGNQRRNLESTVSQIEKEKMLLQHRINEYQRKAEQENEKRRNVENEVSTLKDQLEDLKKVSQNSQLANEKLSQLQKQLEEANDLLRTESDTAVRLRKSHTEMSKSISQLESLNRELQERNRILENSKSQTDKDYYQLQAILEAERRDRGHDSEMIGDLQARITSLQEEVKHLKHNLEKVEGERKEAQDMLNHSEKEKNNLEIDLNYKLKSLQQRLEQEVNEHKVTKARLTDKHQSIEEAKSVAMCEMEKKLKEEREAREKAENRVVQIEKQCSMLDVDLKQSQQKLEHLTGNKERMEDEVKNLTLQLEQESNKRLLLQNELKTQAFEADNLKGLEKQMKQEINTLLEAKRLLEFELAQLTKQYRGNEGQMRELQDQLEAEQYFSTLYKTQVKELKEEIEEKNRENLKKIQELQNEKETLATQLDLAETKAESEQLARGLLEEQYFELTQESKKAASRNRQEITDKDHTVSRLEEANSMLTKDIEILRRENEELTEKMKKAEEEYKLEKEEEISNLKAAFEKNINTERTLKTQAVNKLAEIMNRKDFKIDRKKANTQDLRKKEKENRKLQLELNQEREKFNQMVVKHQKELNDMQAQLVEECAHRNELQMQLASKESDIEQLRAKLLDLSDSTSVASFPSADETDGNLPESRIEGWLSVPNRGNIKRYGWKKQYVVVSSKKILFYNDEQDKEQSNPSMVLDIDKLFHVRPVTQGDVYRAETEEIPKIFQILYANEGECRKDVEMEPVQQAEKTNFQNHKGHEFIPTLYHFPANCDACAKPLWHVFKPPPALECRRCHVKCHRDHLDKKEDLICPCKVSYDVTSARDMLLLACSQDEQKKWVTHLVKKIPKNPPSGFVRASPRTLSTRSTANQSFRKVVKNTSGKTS
LIM domain kinase 1, sequence (P53667 whole entry, the tested form may be a part): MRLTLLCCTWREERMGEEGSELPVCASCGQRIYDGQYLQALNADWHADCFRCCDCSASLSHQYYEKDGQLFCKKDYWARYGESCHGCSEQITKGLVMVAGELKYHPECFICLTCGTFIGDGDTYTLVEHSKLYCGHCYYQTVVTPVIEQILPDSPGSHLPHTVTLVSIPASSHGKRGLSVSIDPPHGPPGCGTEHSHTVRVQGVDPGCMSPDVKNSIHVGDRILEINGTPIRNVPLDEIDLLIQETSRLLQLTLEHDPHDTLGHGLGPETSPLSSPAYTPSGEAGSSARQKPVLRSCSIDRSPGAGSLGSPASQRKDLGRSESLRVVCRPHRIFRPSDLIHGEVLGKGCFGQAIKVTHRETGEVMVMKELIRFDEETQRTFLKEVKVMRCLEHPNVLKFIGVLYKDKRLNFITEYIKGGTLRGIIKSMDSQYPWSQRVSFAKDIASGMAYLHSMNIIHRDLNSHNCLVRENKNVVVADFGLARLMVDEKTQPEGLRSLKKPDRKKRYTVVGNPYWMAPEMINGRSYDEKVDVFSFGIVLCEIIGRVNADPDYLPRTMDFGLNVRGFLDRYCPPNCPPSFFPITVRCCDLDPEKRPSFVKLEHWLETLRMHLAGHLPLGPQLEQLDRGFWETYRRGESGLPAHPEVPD

In the case of `Cc1c[nH]c2ncnc(N3CCN(/C(=N\C#N)Nc4cccc(Br)c4)[C@@H](C)C3)c12`, the IC50 [1] is reported as 260 nM, the IC50 (LIM domain kinase 1) is reported as 0.5 nM and the IC50 [2] is reported as 2700 nM. For the same molecule, the IC50 (LIM domain kinase 2) was 0.9 nM.

`Cc1c[nH]c2ncnc(N3CCN(C(=O)Nc4cccc(C(=O)NC(C)C)c4)[C@@H](C)C3)c12` showed an inhibition (PTM) of 0% and an IC50 (LIM domain kinase 2) of 5.5 nM.

In the case of `Cc1c[nH]c2ncnc(N3CCN(/C(=N/C#N)Nc4cccc(Br)c4)[C@@H](C)C3)c12`, the inhibition (PTM) is reported as 50%, the Ratio IC50 (Homo sapiens [3]) is reported as > 100 and the Activity (Mus musculus [4]) is reported as 3.7 mmHg. The Activity [5] was 30% and the Ratio IC50 (Homo sapiens [6]) was > 900.

In the case of `Cc1c[nH]c2ncnc(N3CCN(/C(=N/C#N)Nc4cccc(Br)c4)CC3)c12`, the IC50 (LIM domain kinase 2) is reported as 11 nM.

In the case of `Cc1c[nH]c2ncnc(N3CCC(C(=O)Nc4cccc(Oc5ccccc5)c4)CC3)c12`, the IC50 (LIM domain kinase 2) is reported as 64 nM.

Work on `C[C@H]1CN(c2ncnc3[nH]cc(Cl)c23)CCN1/C(=N/C#N)Nc1cccc(Br)c1` yielded an IC50 (LIM domain kinase 2) of 1.2 nM.

In the case of `Cc1c[nH]c2ncnc(N3CCN(/C(=N/C#N)Nc4ccc(F)c(Br)c4)[C@@H](C)C3)c12`, the inhibition (PTM) is reported as 63%, the Ratio IC50 (Homo sapiens [3]) is reported as > 100 and the IC50 [1] is reported as 310 nM. It also gave an IC50 (LIM domain kinase 1) of 3.7 nM, an IC50 [2] of 2200 nM and an IC50 (LIM domain kinase 2) of 1.5 nM. The Ratio IC50 (Homo sapiens [6]) was > 900.

With `Cc1c[nH]c2ncnc(N3CCN(/C(=N/C#N)Nc4cccc(C(C)(C)C)c4)[C@@H](C)C3)c12` the inhibition (PTM) was 10%.

Work on `Cc1c[nH]c2ncnc(N3CCN(C(=O)Nc4cccc(Br)c4)CC3)c12` yielded an IC50 (LIM domain kinase 2) of 38 nM.

In the case of `COc1ccc(NC(=O)C2CCN(c3ncnc4[nH]cc(C)c34)CC2)cc1`, the IC50 (LIM domain kinase 2) is reported as 1500 nM.

With `Cc1ccccc1NC(=O)C1CCN(c2ncnc3[nH]cc(C)c23)CC1` the IC50 (LIM domain kinase 2) was 11500 nM.

Molecule `Cc1cccc(NC(=O)N2CCN(c3ncnc4[nH]cc(C)c34)CC2)c1` has an IC50 (LIM domain kinase 2) of 92 nM.

In the case of `COc1cccc(NC(=O)C2CCN(c3ncnc4[nH]cc(C)c34)CC2)c1`, the IC50 (LIM domain kinase 2) is reported as 520 nM.

`Cc1c[nH]c2ncnc(N3CCC(C(=O)Nc4ccccc4)CC3)c12` gave an IC50 (LIM domain kinase 2) of 800 nM.

With `Cc1c[nH]c2ncnc(N3CCN(C(=Nc4cccc(S(=O)(=O)NCCO)c4)NC#N)[C@@H](C)C3)c12` the IC50 (LIM domain kinase 2) was 2.9 nM.

Molecule `Cc1c[nH]c2ncnc(N3CCN(/C(=N/C#N)Nc4cccc(C(=O)NC(C)C)c4)[C@@H](C)C3)c12` has an inhibition (PTM) of 0%.

Molecule `Cc1c[nH]c2ncnc(N3C[C@@H](C)N(C(=O)Nc4cccc(Br)c4)[C@@H](C)C3)c12` has an IC50 (LIM domain kinase 2) of 133 nM.

Work on `C[C@@H](N)c1ccc(C(=O)Nc2ccnc3[nH]ccc23)cc1` [Y-39983] yielded an Activity [7] of 28%.

For `C[C@H]1CN(c2nc(Cl)nc3[nH]ccc23)CCN1C(=Nc1cccc(Br)c1)NC#N`, the IC50 (LIM domain kinase 2) was > 1000 nM.

Work on `Cc1c[nH]c2ncnc(N3CCN(C(=Nc4cccc(C(=O)NC(C)C)c4)NC#N)[C@@H](C)C3)c12` yielded an IC50 (LIM domain kinase 2) of 3.5 nM.

In the case of `Cc1c[nH]c2ncnc(N3CCN(/C(=N/S(C)(=O)=O)Nc4cccc(Br)c4)[C@@H](C)C3)c12`, the inhibition (PTM) is reported as 48% and the IC50 (LIM domain kinase 2) is reported as 6.8 nM.

Molecule `Cc1c[nH]c2ncnc(N3CCN(C(=Nc4cccc(C(=O)NCCO)c4)NC#N)[C@@H](C)C3)c12` has an IC50 (LIM domain kinase 2) of 0.8 nM.

Work on `Cc1c[nH]c2ncnc(N3CCN(/C(=N/C#N)Nc4cccc(S(=O)(=O)NCCO)c4)[C@@H](C)C3)c12` yielded an inhibition (PTM) of 22%.

In the case of `Cc1c[nH]c2ncnc(N3CCN(C(=O)Nc4cccc(C(=O)NCCO)c4)[C@@H](C)C3)c12`, the inhibition (PTM) is reported as 0% and the IC50 (LIM domain kinase 2) is reported as 3 nM.

Work on `Cc1c[nH]c2ncnc(N3CCN(C(=Nc4cccc(C(C)(C)C)c4)NC#N)[C@@H](C)C3)c12` yielded an IC50 (LIM domain kinase 2) of 1.1 nM.

With `Cc1c[nH]c2ncnc(N3CCC(C(=O)Nc4cccc(Br)c4)CC3)c12` the IC50 (LIM domain kinase 2) was 300 nM.

For `Cc1c[nH]c2ncnc(N3CCN(/C(=N/C#N)Nc4cccc(Br)c4)[C@@H](C(C)C)C3)c12`, the IC50 (LIM domain kinase 2) was 4.2 nM.

For `Cc1c[nH]c2ncnc(N3CCN(/C(=N/C#N)Nc4cccc(C#N)c4)[C@@H](C)C3)c12`, the inhibition (PTM) was 18% and the IC50 (LIM domain kinase 2) was 1.2 nM.

Work on `Cc1c[nH]c2ncnc(N3CCN(/C(=N/C#N)Nc4cccc(C(=O)NCCN(C)C)c4)[C@@H](C)C3)c12` yielded an inhibition (PTM) of 0% and an IC50 (LIM domain kinase 2) of 3.4 nM.

With `Cc1c[nH]c2ncnc(N3CCN(C(=O)Nc4cccc(Br)c4)[C@H](C)C3)c12` the IC50 (LIM domain kinase 2) was 37 nM.

With `Cc1c[nH]c2ncnc(N3CC4CC3CN4C(=Nc3cccc(Br)c3)NC#N)c12` (stereo not given) the IC50 (LIM domain kinase 2) was 76 nM.

Work on `Cc1c[nH]c2ncnc(N3CCN(C(=O)Nc4cccc(C(=O)NC(CO)CO)c4)[C@@H](C)C3)c12` yielded an inhibition (PTM) of 27% and an IC50 (LIM domain kinase 2) of 3 nM.

Molecule `Cc1c[nH]c2ncnc(N3CCN(/C(=N/C#N)Nc4cccc(Cl)c4)[C@@H](C)C3)c12` has an inhibition (PTM) of 49% and an IC50 (LIM domain kinase 2) of 1.6 nM.

`Cc1c[nH]c2ncnc(N3CCN(/C(=N/C#N)Nc4cccc(F)c4)[C@@H](C)C3)c12` showed an inhibition (PTM) of 39% and an IC50 (LIM domain kinase 2) of 1.8 nM.

Work on `CC1CN(c2ncnc3[nH]ccc23)CCN1/C(=N/C#N)Nc1cccc(Br)c1` (racemic) yielded an IC50 (LIM domain kinase 2) of 8.1 nM.

`Cc1cc2c(N3CCN(/C(=N/C#N)Nc4cccc(Br)c4)[C@@H](C)C3)ncnc2[nH]1` showed an IC50 (LIM domain kinase 2) of 4.2 nM.

In the case of `Cc1c[nH]c2ncnc(N3CCN(C(=O)Nc4ccc(F)c(Br)c4)[C@@H](C)C3)c12`, the inhibition (PTM) is reported as 51%, the Ratio IC50 (Homo sapiens [3]) is reported as 16 and the IC50 [1] is reported as 51 nM. The IC50 (LIM domain kinase 1) was 6.6 nM, the IC50 [2] was 280 nM and the IC50 (LIM domain kinase 2) was 3.2 nM. For the same molecule, the Activity (Mus musculus [4]) was 3.6 mmHg and the Ratio IC50 (Homo sapiens [6]) was 88.

Work on `Cc1c[nH]c2ncnc(N3CCN(/C(=N/C#N)Nc4cccc(S(=O)(=O)NC(C)C)c4)[C@@H](C)C3)c12` yielded an inhibition (PTM) of 0% and an IC50 (LIM domain kinase 2) of 1.7 nM.

`Cc1c[nH]c2ncnc(N3CC4CCC(C3)N4C(=O)Nc3cccc(Br)c3)c12` gave an IC50 (LIM domain kinase 2) of 16 nM.

With `Cc1c[nH]c2ncnc(N3CCN(C(=O)Nc4cccc(OC(=O)N(C)C)c4)[C@@H](C)C3)c12` the inhibition (PTM) was 61%, the Activity (Mus musculus [8]) was “Dose-dependent effect” and the Ratio IC50 (Homo sapiens [3]) was > 100. It also gave an IC50 [1] of 490 nM, an IC50 (LIM domain kinase 1) of 3.2 nM and an IC50 [2] of 1100 nM. For the same molecule, the IC50 (LIM domain kinase 2) was 1.2 nM, the Activity (Mus musculus [4]) was 3.6 mmHg and the Activity [5] was 30%. For the same molecule, the Ratio IC50 (Homo sapiens [6]) was > 900 and the Activity (Mus musculus [9]) was -3.2 mmHg.

`Cc1c[nH]c2ncnc(N3CCN(/C(=N/C#N)Nc4cccc(C(=O)NCCO)c4)[C@@H](C)C3)c12` showed an inhibition (PTM) of 9%.

With `CC(C)(C)NC[C@H](O)COc1nsnc1N1CCOCC1` [TIMOLOL] the Activity (Mus musculus [9]) was -5.2 mmHg.

`Cc1cccc(NC(=O)C2CCN(c3ncnc4[nH]cc(C)c34)CC2)c1` showed an IC50 (LIM domain kinase 2) of 650 nM.

Work on `COc1cccc(NC(=O)N2CCN(c3ncnc4[nH]cc(C)c34)CC2)c1` yielded an IC50 (LIM domain kinase 2) of 140 nM.

Molecule `Cc1c[nH]c2ncnc(N3C[C@H](C)N(C(=Nc4cccc(Br)c4)NC#N)C[C@H]3C)c12` has an IC50 (LIM domain kinase 2) of 3.9 nM.

`Cc1ccc(NC(=O)C2CCN(c3ncnc4[nH]cc(C)c34)CC2)cc1` showed an IC50 (LIM domain kinase 2) of 1300 nM.

`Cc1c[nH]c2ncnc(N3CCN(C(=O)Nc4cccc(Cl)c4)[C@@H](C)C3)c12` gave an inhibition (PTM) of 0% and an IC50 (LIM domain kinase 2) of 2.3 nM.

With `Cc1c[nH]c2ncnc(N3CCN(C(=O)Nc4cccc(Br)c4)[C@@H](C)C3)c12` the IC50 (LIM domain kinase 2) was 3.9 nM.

With `Cc1c[nH]c2ncnc(N3CCN(/C(=N/C#N)Nc4cccc(C(F)(F)F)c4)[C@@H](C)C3)c12` the inhibition (PTM) was 12% and the IC50 (LIM domain kinase 2) was 1.9 nM.
